# Measurements from article PMC8571378, “Reversion analysis reveals the in vivo immunogenicity of a poorly MHC I-binding cancer neoepitope” (Nature Communications, 2021).
# No end group written: not given here.
# What was measured:
# splenic CD8 T cells = test: ELIspot for interferon γ of splenic CD8 T cells from immunized mice; type: cell-based, BALB/c mice; conditions: spleens seven days after second immunization; in vitro stimulation with immunizing 18-mer, 10 µM
# From the text: BALB/c mice were immunized with 18-mer peptides containing Ccdc85c^MUT as well as Ccdc85c^WT as described in Methods. Spleens were harvested seven days after the second immunization and splenic CD8 T cells tested by ELIspot for interferon γ production in response to stimulation in vitro with the peptides used for immunization. […] Since the CD8 response detected in vitro was so modest, CD8 response as detected in vivo in the tumor microenvironment became our focus.
# Supplementary Fig. 3. CD8 response to Ccdc85cMUT and Ccdc85cWT peptides. BALB/c mice were immunized twice at a weekly interval with 18-mer peptides containing Ccdc85cWT (left) or Ccdc85cMUT (right) as described in Methods. Spleens were harvested seven days after the second immunization and CD8 T cells stimulated in vitro with the peptides (10 µM concentration) used for immunization, as indicated. CD8 cells were analyzed for release of interferon g. Each dot represents a single mouse. The P values were calculated using two tailed t-test. Data are presented as mean values +/- SD. […]
# Meth A = test: Tumor rejection (immunization-challenge) assay; tumor growth AUC and tumor rejection score (TRS); type: in vivo, BALB/cJ mice; conditions: BALB/cJ mice immunized twice, CTLA4 blockade
# Method: Each line represents tumor growth in a single mouse (n = 5 mice per group). AUC for each group is plotted in the panel on the right. Data are presented as mean ± SD. P values were calculated using 1-way ANOVA test adjusted for multiple comparisons (Tukey’s multiple comparison test). c Several truncated versions of the 18-mer Ccdc85c^MUT peptide were tested in tumor rejection assay. BALB/cJ mice were immunized and tumor challenged. Each line represents tumor growth in a single mouse. Although mice were immunized with individual peptides, the data for multiple peptides are grouped into one with the composition of the peptides shown on the right. The tumor rejection data for individual peptides are shown in Supplementary Fig. 1. Tumor rejection score (TRS) for each neoepitope is shown in the yellow box, where five represents a complete tumor protection and zero means no tumor rejection. d On the left panel, total Area Under the Curve (AUC) scores for each group in B are plotted. […] Error bars represent standard deviation (SD). […] P values were calculated using 1-way ANOVA test adjusted for multiple comparisons. […] Matched peak lists for the “heavy” and “light” ions were extracted and monitored, while only single charge y ions were plotted. See Methods for details. f Predicted (by NetMHC4.0) and measured IC50 values of the binding of candidate precise neoepitopes of Ccdc85c^MUT to K^d are shown. […] The affinities of the MS/TRS predicted neoepitopes were also measured for D^d and L^d; measured affinities were below the level of detection.
# The mutation is heterozygous and the un-mutated as well as the mutated reads are detected in the transcripts. […] All mice were challenged with the Meth A cells, and tumor rejection was monitored (Fig. 1b upper panel). […]
# Area under the curve (AUC) is used as a tool to measure tumor growth. Briefly, AUC was calculated by selecting “Curves & Regression” and then “Area under curve” from the “analyze” tool, using the Prism 5.0 (GraphPad). […]
# H2-A^d = test: MHC II cell-surface density assay, H2-A^d; type: cell-based, mouse; conditions: NIH3T3 cells, flow cytometry 48 h after transduction; peptides adjusted to 12-mer with N-terminal glycines; MUT vs WT counterpart
# From the text: (§1) In order to determine if any peptides within Ccdc85c^MUT could be presented by MHC II molecules, we analyzed the interaction of H2-A^d and H2-E^d with […], […] and IRPFETKVK as well as their wild type counterparts, using a cell-surface density assay. In this assay, β-chains of H2-Ab1^d or H2-Eb1^d are expressed in fusion with the peptide of interest and the amount of cell-surface MHC II, as a measure of intrinsic stability of MHC II, is quantified in engineered conditions. The measured cell-surface MHC density correlates well with the actual affinity of the peptide to MHC II. […] This was observed when CD4 depletion was carried out during the priming phase alone (as in Supplementary Fig. 2b), or throughout the entire experiment including the effector phase (i.e. post tumor challenge).
# (§2) MHC II-peptide binding analysis was conducted by cell-surface density assay[18] with modifications. […] Cell-surface expression of H2-A^d or H2-E^d and cytoplasmic expression of GFP in GFP^+ MHC^+ cells were measured by flow cytometry 48 h after the transduction, using the following antibodies: H2-A^d, anti-mouse I-A^d mAb with the dilution of 1:10, 20 μl per sample (39-10-8, BioLegend) or mouse IgG3 isotype control with the dilution of 1:100, 10 μl per sample (m078-3, clone 6A3, Medical & Biological Laboratories Co. Ltd.) and goat anti-mouse IgG3-PE with the dilution of 1:20, 15 μl per sample (sc-3767, Santa Cruz Biotechnology, Inc.); H2-E, anti-I-E^d mAb with the dilution of 1:40, 10 μl per sample (115002, 14-4-4 S, Thermo Fisher) or mouse IgG2a isotype control with the dilution of 1:10, 10 μl per sample (m076-3, clone 6H3, Medical & Biological Laboratories Co. Ltd.) and goat F(ab’)2 Anti-mouse Ig-PE with the dilution of 1:20, 20 μl per sample (1012-09, Southern Biotechnology Associates Inc.). The ratio of MHC MFI to GFP MFI (MHC/GFP) for each MHC II-peptide combination was calculated and normalized to the MHC/GFP for respective MHC II allele-G9 peptide. On each assay date, MHC/GFP for each MHC II-peptide combination was measured for three or four wells and their average was determined. […]
# H2-E^d = test: MHC II cell-surface density assay, H2-E^d; type: cell-based, mouse; conditions: NIH3T3 cells, flow cytometry 48 h after transduction; peptides adjusted to 12-mer with N-terminal glycines; MUT vs WT counterpart
# From the text: as §1, §2
# K^d = target: T1, K^d (Mus musculus, UniProt P01902); test: Measured peptide binding to K^d
# T1 sequence (P01902 22-368): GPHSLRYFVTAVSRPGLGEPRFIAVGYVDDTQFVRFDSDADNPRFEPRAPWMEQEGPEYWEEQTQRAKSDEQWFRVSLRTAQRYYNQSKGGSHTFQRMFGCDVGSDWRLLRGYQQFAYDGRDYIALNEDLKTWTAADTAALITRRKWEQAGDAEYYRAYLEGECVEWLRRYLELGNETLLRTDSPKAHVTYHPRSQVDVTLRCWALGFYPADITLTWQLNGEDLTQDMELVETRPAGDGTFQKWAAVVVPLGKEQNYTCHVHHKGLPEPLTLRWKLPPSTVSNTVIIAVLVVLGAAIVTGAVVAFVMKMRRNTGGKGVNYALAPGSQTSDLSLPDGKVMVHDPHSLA
# T1 sequence (P01887 21-119 partner): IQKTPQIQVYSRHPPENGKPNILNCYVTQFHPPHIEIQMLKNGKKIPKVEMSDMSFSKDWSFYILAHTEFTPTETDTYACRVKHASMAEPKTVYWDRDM
# Method: Each line represents tumor growth in a single mouse (n = 5 mice per group). AUC for each group is plotted in the panel on the right. Data are presented as mean ± SD. P values were calculated using 1-way ANOVA test adjusted for multiple comparisons (Tukey’s multiple comparison test). c Several truncated versions of the 18-mer Ccdc85c^MUT peptide were tested in tumor rejection assay. BALB/cJ mice were immunized and tumor challenged. Each line represents tumor growth in a single mouse. Although mice were immunized with individual peptides, the data for multiple peptides are grouped into one with the composition of the peptides shown on the right. The tumor rejection data for individual peptides are shown in Supplementary Fig. 1. Tumor rejection score (TRS) for each neoepitope is shown in the yellow box, where five represents a complete tumor protection and zero means no tumor rejection. d On the left panel, total Area Under the Curve (AUC) scores for each group in B are plotted. […] Error bars represent standard deviation (SD). The P values corresponding to the comparison of TRS = 0 with TRSs 5.0, 4.0–4.5 and 3.0–3.3 were respectively <0.0001, <0.0001 and 0.0002. P values were calculated using 1-way ANOVA test adjusted for multiple comparisons. On the right, peptides with the highest and the lowest TRS are shown. e Targeted MS-based detection of TYIRPFETKVK and YIRPFETKVK among MHC I peptides eluted from BMDCs pulsed with the 18-mer Ccdc85c^MUT. Heavy labeled synthetic peptides were spiked into the peptide samples; the labeled amino acid is marked with a bold character and the mutation is in red. Matched peak lists for the “heavy” and “light” ions were extracted and monitored, while only single charge y ions were plotted. See Methods for details. f Predicted (by NetMHC4.0) and measured IC50 values of the binding of candidate precise neoepitopes of Ccdc85c^MUT to K^d are shown. […] The affinities of the MS/TRS predicted neoepitopes were also measured for D^d and L^d; measured affinities were below the level of detection.
# D^d = test: Measured peptide binding to D^d; set-up: species or system mouse
# Method: (§3) Each line represents tumor growth in a single mouse (n = 5 mice per group). AUC for each group is plotted in the panel on the right. Data are presented as mean ± SD. P values were calculated using 1-way ANOVA test adjusted for multiple comparisons (Tukey’s multiple comparison test). c Several truncated versions of the 18-mer Ccdc85c^MUT peptide were tested in tumor rejection assay. BALB/cJ mice were immunized and tumor challenged. Each line represents tumor growth in a single mouse. Although mice were immunized with individual peptides, the data for multiple peptides are grouped into one with the composition of the peptides shown on the right. The tumor rejection data for individual peptides are shown in Supplementary Fig. 1. […] P values were calculated using 1-way ANOVA test adjusted for multiple comparisons. […] Matched peak lists for the “heavy” and “light” ions were extracted and monitored, while only single charge y ions were plotted. See Methods for details. f Predicted (by NetMHC4.0) and measured IC50 values of the binding of candidate precise neoepitopes of Ccdc85c^MUT to K^d are shown. […] The affinities of the MS/TRS predicted neoepitopes were also measured for D^d and L^d; measured affinities were below the level of detection.
# L^d = test: Measured peptide binding to L^d; set-up: species or system mouse
# Method: as §3
Sequence,CD8 response (interferon γ ELIspot) (splenic CD8 T cells),tumor rejection (in words) (Meth A),binding of Ccdc85c^MUT versus Ccdc85c^WT to H2-IA (MHC/GFP normalized to G9) (H2-A^d),binding of Ccdc85c^MUT versus Ccdc85c^WT to H2-IE (MHC/GFP normalized to G9) (H2-E^d),IC50 (K^d; assay kind not described) [nM],measured affinity for D^d (D^d),measured affinity for K^d (in words) (K^d),measured affinity for L^d (L^d)
"DPSSTYIRPLETKVKLLD [un-mutated peptide, un-mutated 18-mer peptide of Ccdc85c]",no CD8 response,failed to elicit protection,,,,,,
IRPFETKVK [truncated version of the 18-mer Ccdc85c^MUT peptide],,,No significant difference,No significant difference,,,,
TYIRPFETKV [TYIRPFETKV],,,,,247,,,
TYIRPFETKVK,,,No significant difference,No significant difference,,very low or undetectable,very low or undetectable,very low or undetectable
YIRPFETKVK,,,No significant difference,No significant difference,,very low or undetectable,very low or undetectable,very low or undetectable
